Test results reported in BindingDB's records for doi:10.7270/Q2222S6W (University of Pittsburgh, 2007).
Where a name gives a salt, the structure may show the parent alone.

The compounds below were run against Genome polyprotein (West Nile virus, UniProt P06935) (assay: inhibitors of WNV NS2B-NS3 protease, dose response, biochemical, confirmation (AID 653)).
Genome polyprotein, sequence (P06935 1371-1501 limits assumed): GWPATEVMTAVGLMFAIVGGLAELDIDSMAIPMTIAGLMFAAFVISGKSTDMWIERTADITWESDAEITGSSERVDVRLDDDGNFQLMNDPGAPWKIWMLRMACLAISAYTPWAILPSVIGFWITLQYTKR
Genome polyprotein, sequence (P06935 1502-2120 limits assumed): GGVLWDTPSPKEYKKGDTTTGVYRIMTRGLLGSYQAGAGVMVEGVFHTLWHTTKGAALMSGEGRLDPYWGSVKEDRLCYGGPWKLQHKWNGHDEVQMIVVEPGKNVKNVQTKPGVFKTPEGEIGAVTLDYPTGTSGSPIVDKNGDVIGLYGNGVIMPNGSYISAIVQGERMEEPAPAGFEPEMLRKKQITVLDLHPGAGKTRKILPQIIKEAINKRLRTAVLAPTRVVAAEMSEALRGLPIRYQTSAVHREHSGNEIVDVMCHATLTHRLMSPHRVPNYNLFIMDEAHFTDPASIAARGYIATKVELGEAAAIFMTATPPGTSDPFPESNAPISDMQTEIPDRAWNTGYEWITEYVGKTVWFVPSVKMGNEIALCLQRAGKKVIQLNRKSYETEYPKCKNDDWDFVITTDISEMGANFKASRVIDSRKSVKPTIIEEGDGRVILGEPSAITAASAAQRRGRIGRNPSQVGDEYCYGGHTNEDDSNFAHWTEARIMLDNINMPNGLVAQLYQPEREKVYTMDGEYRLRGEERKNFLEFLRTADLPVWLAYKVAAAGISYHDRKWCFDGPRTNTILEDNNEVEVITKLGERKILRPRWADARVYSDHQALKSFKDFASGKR
Work on `CCS(=O)(=O)N1Cc2ccccc2CC1C(=O)N1CCN(c2cccc(C)c2C)CC1` (stereo not given) [MLS000053522] yielded an IC50 of 38.6 µM.
For `CCN(CC(=O)Nc1ccccc1OC)C(=O)C1CC2C=CC1C2` (stereo not given) [MLS000053693], the IC50 was > 50 µM.
With `Cc1sc2nc3c4ccccc4c(NCc4ccco4)nn3c(=O)c2c1C` [MLS000056809] the IC50 was > 50 µM.
For `CCN(Cc1ccccc1)C(=O)c1ccccc1C` [MLS000058902], the IC50 was > 50 µM.
With `Cn1nnc2cc(C(=O)NC3CCCCC3)ccc21` [MLS000063766] the IC50 was > 50 µM.
In the case of `Nc1ccc(S(=O)(=O)Nc2ccccn2)cc1` [MLS000069725], the IC50 is reported as > 50 µM.
In the case of `COc1ccc(OC)c(NS(=O)(=O)c2cccs2)c1` [MLS000070319], the IC50 is reported as > 50 µM.
With `COc1ccc2nc(NC(=O)CSc3nc4cccnc4n3C)sc2c1` [MLS000072990] the IC50 was > 50 µM.
With `CCCn1c(SCC(=O)Nc2ccc3c(c2)OCCO3)nnc1-c1ccco1` [MLS000073448] the IC50 was > 50 µM.
`COC(=O)c1[nH]c2cc(OC)ccc2c1NC(=O)c1ccc2c(c1)OCO2` [MLS000081144] was tested, and the IC50 was > 50 µM.
`CCN1CCN(CNC(=O)c2cnccn2)CC1` [MLS000082173] was tested, and the IC50 was > 50 µM.
In the case of `O=S(=O)(c1ccc(F)cc1)N(CCO)CC(O)Cn1c2ccccc2c2ccccc21` (stereo not given) [MLS000088265], the IC50 is reported as > 50 µM.
With `Cc1ccc(Cl)cc1NC(=O)c1ocnc1C` [MLS000092879] the IC50 was > 50 µM.
For `COc1ccc(N2CCN(C(CNC(=O)Oc3ccccc3)c3cccnc3)CC2)cc1` (stereo not given) [MLS000094397], the IC50 was > 50 µM.
For `CC(C)CCN1CC(C(=O)NCc2ccc(F)cc2)CC1=O` (stereo not given) [MLS000096189], the IC50 was > 50 µM.
For `COc1ccc(C(=O)c2oc3ccc(Br)cc3c2NC(C)=O)cc1` [MLS000115316], the IC50 was > 50 µM.
`Cc1ccc(NC(=O)C2C3CC4OC(=O)C2C4C3)cc1Cl` (stereo not given) [N-(3-chloro-4-methylphenyl)-5-oxo-4-oxatricyclo[4.2.1.0~3,7~]nonane-9-carboxamide] was tested, and the IC50 was > 50 µM.
`CCN1CCN(C(=O)N[C@@H](C(=O)N[C@@H]2C(=O)N3[C@@H]2SC(C)(C)[C@@H]3C(=O)O)c2ccccc2)C(=O)C1=O` [PIPERACILLIN SODIUM SALT] was tested, and the IC50 was > 50 µM.
`O=C(OC1CCCCC1)c1ccc2c(c1)C1C=CCC1C(C(=O)O)N2` (stereo not given) [SMR000019385] was tested, and the IC50 was > 50 µM.
Work on `Nc1cc(OC(=O)c2cccs2)nn1S(=O)(=O)c1ccccc1` [SMR000021562] yielded an IC50 of 2.38 µM.
In the case of `OCCNC1=NCCN1` [SMR000038385], the IC50 is reported as > 50 µM.
`NC(=O)NC1CCCc2c1[nH]c1ccc(Cl)cc21` (stereo not given) [SMR000091683] was tested, and the IC50 was > 50 µM.
`Cc1cc(OC(=O)c2ccccc2)n(CCC#N)n1` [[2-(2-cyanoethyl)-5-methyl-pyrazol-3-yl] benzoate] showed an IC50 of 1.35 µM.
With `Nc1ncnc2c1ncn2[C@@H]1O[C@H](CO)[C@@H](O)[C@H]1O` [[U-14C]adenosine] the IC50 was > 50 µM.
`COC(=O)CSC1=NC2=C(C(=O)CCC2)C(c2ccc(C)cc2)C1C#N` (stereo not given) [methyl 2-[[3-cyano-4-(4-methylphenyl)-5-oxo-4,6,7,8-tetrahydro-1H-quinolin-2-yl]sulfanyl]acetate] was tested, and the IC50 was > 50 µM.
